Legend:
mice (laboratory strain) = test: Acute Oral Toxicity in Mice (Laboratory Strain); assay type: in vivo; conditions: for LD50 (acute oral): aqueous suspension; for Observations: signs of poisoning: prior to death / after dosing
Experimental: Acute Oral Toxicity in Mice (Laboratory Strain)
Groups of mice were dosed orally with graded doses of the test compound in aqueous suspension and observed until there had been no deaths for at least three days. The acute oral LD50, that is to say the dose in mg/kg animal body weight necessary to kill 50% of the mice, was determined from the numbers of animals for each dose which died during the observation period by reference to published tables.

[1] = system: Warfarin-resistant rats (Rattus norvegicus); test: Laboratory Feeding Tests on Wild Rodents: rats; assay type: in vivo; conditions: 0.1% by weight in bait
Excerpt: (§1) Laboratory Feeding Tests on Wild Rodents
(§2) Warfarin-resistant rats (Rattus norvegicus) and mice (Mus musculus) from wild populations were fed, in the laboratory, on a bait consisting of coarse oatmeal (90%), wholemeal flour (5%) and corn oil (5%). After feeding for four days on this bait, it was replaced by a treated bait of the same composition, in which 0.1% by weight of the test compound 1-(3,5-bistrifluoromethylphenyl)-3-(4-tert-butylpiperidino)prop-1-yne hydrochloride had been incorporated.

[2] = system: Warfarin-resistant mice (Mus musculus); test: Laboratory Feeding Tests on Wild Rodents: mice; assay type: in vivo; conditions: 0.1% by weight in bait
Excerpt: as §1, §2

mice (Mus musculus) [3] = test: Laboratory Feeding Tests on Mice in Pens, Test 3(a), poisoned bait alone; assay type: in vivo; conditions: 0.1% by weight in bait
Experimental: (§3) Laboratory Feeding Tests on Mice in Pens
(§4) A bait comprising oatmeal, wholemeal flour and corn oil (plain bait) and a bait of similar composition but incorporating 0.1% by weight of the test compound used in Test 2 hereinbefore described (poisoned bait) were prepared and used in the following tests on mice (Mus musculus) housed in pens.
The poisoned bait alone was offered to 4 male and 4 female mice.

mice (Mus musculus) [4] = test: Laboratory Feeding Tests on Mice in Pens, Test 3(b), choice of poisoned and plain bait; assay type: in vivo
Experimental: as §3, §4
A choice of poisoned and plain bait was offered to groups of mice.

[5] = system: Wild Rats (Rattus norvegicus); test: Laboratory Simulated Field Test on Wild Rats in confinement; assay type: in vivo; conditions: for Total bait eaten: poisoned + plain
Excerpt: Laboratory Simulated Field Test on Wild Rats (Rattus norvegicus) in confinement
One male and nine female rats were given the choice of two feeding points, at each of which the animals were offered a bait consisting of medium oatmeal (95%) and wholemeal flour (5%) (plain bait). After a period of six days during which the plain bait was offered at both feeding points, the plain bait was replaced at one of the feeding points by a bait of the same composition in which 0.1% by weight of the test compound used in Test 2 hereinbefore described had been incorporated (poisoned bait), while the plain bait continued to be offered at the other feeding point.

[6] = system: Warfarin-resistant rats (Rattus norvegicus); test: Field Tests on Rats on three farms; assay type: in vivo
Experimental: Field Tests on Rats (Rattus norvegicus)
Field tests were carried out on warfarin-resistant rats on three farms. Baits were prepared from either medium oatmeal or soaked wheat in which was incorporated 0.1% by weight of the test compound used in Test 2 hereinbefore described. […] The amount of bait eaten per day was determined by weighing and the presence or absence of rats was deduced from the amount of bait eaten and by counting the traces of the presence of rats in patches of dust laid for this purpose.

mice (Mus musculus) [7] = test: Field Test on Mice; assay type: in vivo
Experimental: Field Test on Mice (Mus musculus)
(1) A non-toxic bait was laid at 3 mouse-infested sites and the amount of bait eaten was determined by weighing. (2) The non-toxic bait was then withdrawn and replaced by a similar bait in which was incorporated 0.1% by weight of the test compound used in Test 2 hereinbefore described (poisoned bait). The amount of poisoned bait which was eaten was similarly determined by weighing over a period of three weeks. (3) The poisoned bait was then withdrawn and replaced by the non-toxic bait and the amount of non-toxic bait which was eaten was also similarly determined by weighing. The results obtained are given in following Table 6, the degree of control being calculated by a comparison of the amounts of non-toxic bait which were eaten during the periods before and after use of the poisoned bait.

CC(C)(C)C1CCN(CC#Cc2cc(C(F)(F)F)cc(C(F)(F)F)c2)CC1.Cl [1-(3,5-bistrifluoromethylphenyl)-3-(4-tert-butylpiperidino)prop-1-yne hydrochloride]
LD50 (acute oral) (mice (laboratory strain)): 23 mg/kg animal body weight
Observations: signs of poisoning (mice (laboratory strain)): no marked signs
Days to Death, Mean ([1]; female rats): 5.8 days
Mortality ([1]; female rats): 5/5
Days to Death, Mean ([1]; male rats): 7.2 days
Mortality ([1]; male rats): 5/5
Days to Death, Mean ([2]; female mice): 5.8 days
Mortality ([2]; female mice): 5/5
Days to Death, Mean ([2]; male mice): 6.2 days
Mortality ([2]; male mice): 5/5
Days to Death, Mean (mice (Mus musculus) [3]): 5.5 days
Mortality (mice (Mus musculus) [3]): 100%
Quantity of poisoned bait eaten (mice (Mus musculus) [3]; Day 1, 4 male and 4 female mice): 19.1 g
Quantity of poisoned bait eaten (mice (Mus musculus) [3]; Day 2): 18.8 g
Quantity of poisoned bait eaten (mice (Mus musculus) [3]; Day 3): 15.4 g
Quantity of poisoned bait eaten (mice (Mus musculus) [3]; Days 4-7): 13.7 g
Mortality (mice (Mus musculus) [4]; 15 mice in pen): 93.7%
Quantity of poisoned bait eaten (mice (Mus musculus) [4]; 15 mice in pen, Days 1 to 7): 43.0 g
Quantity of poisoned bait eaten (mice (Mus musculus) [4]; 15 mice in pen, Days 8 to 14): 1.2 g
Quantity of poisoned bait eaten (mice (Mus musculus) [4]; 15 mice in pen, Days 15 to 21): 0.3 g
Mortality (mice (Mus musculus) [4]; 16 mice in pen (first line)): 93.8%
Quantity of poisoned bait eaten (mice (Mus musculus) [4]; 16 mice in pen (first line), Days 1 to 7): 55.0 g
Quantity of poisoned bait eaten (mice (Mus musculus) [4]; 16 mice in pen (first line), Days 8 to 14): 0.5 g
Quantity of poisoned bait eaten (mice (Mus musculus) [4]; 16 mice in pen (first line), Days 15 to 21): 0.0 g
Mortality (mice (Mus musculus) [4]; 16 mice in pen (fourth line)): 93.8%
Quantity of poisoned bait eaten (mice (Mus musculus) [4]; 16 mice in pen (fourth line), Days 1 to 7): 25.7 g
Quantity of poisoned bait eaten (mice (Mus musculus) [4]; 16 mice in pen (fourth line), Days 8 to 14): 2.0 g
Quantity of poisoned bait eaten (mice (Mus musculus) [4]; 16 mice in pen (fourth line), Days 15 to 21): 0.3 g
Mortality (mice (Mus musculus) [4]; 24 mice in pen): 91.7%
Quantity of poisoned bait eaten (mice (Mus musculus) [4]; 24 mice in pen, Days 1 to 7): 42.3 g
Quantity of poisoned bait eaten (mice (Mus musculus) [4]; 24 mice in pen, Days 8 to 14): 3.5 g
Quantity of poisoned bait eaten (mice (Mus musculus) [4]; 24 mice in pen, Days 15 to 21): 0.7 g
Quantity of bait eaten, Feeding Point A, Poisoned bait ([5]; Day 1, 0.1% by weight in bait): 99.7 g
Quantity of bait eaten, Feeding Point B, Plain bait ([5]; Day 1 of offering poisoned bait at Point A): 80.1 g
Quantity of bait eaten, Feeding Point A, Poisoned bait ([5]; Day 2): 95.2 g
Quantity of bait eaten, Feeding Point B, Plain bait ([5]; Day 2 of offering poisoned bait at Point A): 65.9 g
Quantity of bait eaten, Feeding Point A, Poisoned bait ([5]; Day 3): 19.8 g
Quantity of bait eaten, Feeding Point B, Plain bait ([5]; Day 3 of offering poisoned bait at Point A): 67.4 g
Cumulative mortality ([5]; Day 4): 30%
Quantity of bait eaten, Feeding Point A, Poisoned bait ([5]; Day 4): 5.1 g
Quantity of bait eaten, Feeding Point B, Plain bait ([5]; Day 4 of offering poisoned bait at Point A): 38.1 g
Quantity of bait eaten, Feeding Point A, Poisoned bait ([5]; Day 5): 1.8 g
Quantity of bait eaten, Feeding Point B, Plain bait ([5]; Day 5 of offering poisoned bait at Point A): 27.7 g
Cumulative mortality ([5]; Day 6): 60%
Quantity of bait eaten, Feeding Point B, Plain bait ([5]; Day 6 of offering poisoned bait at Point A): 19.3 g
Cumulative mortality ([5]; Day 7): 70%
Quantity of bait eaten, Feeding Point B, Plain bait ([5]; Day 7 of offering poisoned bait at Point A): 4.0 g
Cumulative mortality ([5]; Day 8): 80%
Quantity of bait eaten, Feeding Point B, Plain bait ([5]; Day 8 of offering poisoned bait at Point A): 6.5 g
Cumulative mortality ([5]; Day 9): 90%
Quantity of bait eaten, Feeding Point A, Poisoned bait ([5]; Day 9): 1.3 g
Quantity of bait eaten, Feeding Point B, Plain bait ([5]; Day 9 of offering poisoned bait at Point A): 3.7 g
Quantity of bait eaten, Feeding Point A, Poisoned bait ([5]; Day 11): 0.7 g
Quantity of bait eaten, Feeding Point B, Plain bait ([5]; Day 11 of offering poisoned bait at Point A): 0.7 g
Cumulative mortality ([5]; Day 12): 100%
Total bait eaten ([5]; Day 1): 179.8 g
Total bait eaten ([5]; Day 2): 161.1 g
Total bait eaten ([5]; Day 3): 97.2 g
Total bait eaten ([5]; Day 4): 43.2 g
Total bait eaten ([5]; Day 5): 29.5 g
Total bait eaten ([5]; Day 6): 19.3 g
Total bait eaten ([5]; Day 7): 4.0 g
Total bait eaten ([5]; Day 8): 6.5 g
Total bait eaten ([5]; Day 9): 5.0 g
Total bait eaten ([5]; Day 11): 1.4 g
Total number of dead rats observed during test ([6]; Farm 1): 44
Amount of bait eaten ([6]; Farm 1, Day 1, 0.1% by weight in bait): 2060 g
Amount of bait eaten ([6]; Farm 1, Day 2): 440 g
Amount of bait eaten ([6]; Farm 1, Day 3): 130 g
Amount of bait eaten ([6]; Farm 1, Day 4): 60 g
Amount of bait eaten ([6]; Farm 1, Day 6): 245 g
Amount of bait eaten ([6]; Farm 1, Day 7): 130 g
Amount of bait eaten ([6]; Farm 1, Day 8): 85 g
Amount of bait eaten ([6]; Farm 1, Day 9): 30 g
Amount of bait eaten ([6]; Farm 1, Day 10): 10 g
Amount of bait eaten ([6]; Farm 1, Day 11): 40 g
Amount of bait eaten ([6]; Farm 1, Day 14): 65 g
Total number of dead rats observed during test ([6]; Farm 2): 8
Amount of bait eaten ([6]; Farm 2, Day 1, 0.1% by weight in bait): 1455 g
Amount of bait eaten ([6]; Farm 2, Day 2): 1100 g
Amount of bait eaten ([6]; Farm 2, Day 3): 730 g
Amount of bait eaten ([6]; Farm 2, Day 4): 210 g
Amount of bait eaten ([6]; Farm 2, Day 7): 405 g
Amount of bait eaten ([6]; Farm 2, Day 8): 135 g
Amount of bait eaten ([6]; Farm 2, Day 9): 40 g
Amount of bait eaten ([6]; Farm 2, Day 10): 30 g
Amount of bait eaten ([6]; Farm 2, Day 11): 10 g
Amount of bait eaten ([6]; Farm 2, Day 14): 95 g
Amount of bait eaten ([6]; Farm 2, Day 15): 45 g
Amount of bait eaten ([6]; Farm 2, Day 16): 0 g
Total number of dead rats observed during test ([6]; Farm 3): 113
Amount of bait eaten ([6]; Farm 3, Day 1, 0.1% by weight in bait): 4800 g
Amount of bait eaten ([6]; Farm 3, Day 2): 2680 g
Amount of bait eaten ([6]; Farm 3, Day 3): 360 g
Amount of bait eaten ([6]; Farm 3, Day 4): 445 g
Amount of bait eaten ([6]; Farm 3, Day 7): 565 g
Amount of bait eaten ([6]; Farm 3, Day 8): 205 g
Amount of bait eaten ([6]; Farm 3, Day 9): 185 g
Amount of bait eaten ([6]; Farm 3, Day 10): 65 g
Amount of bait eaten ([6]; Farm 3, Day 11): 15 g
rats initially present on the farms killed (estimated) ([6]; by the fourth day of the tests): about 80%
percentage kill compared with anticoagulant rodenticides ([6]; by the fourth day, vs usual kill with anticoagulant rodenticides used similarly): significantly higher percentage kill
Estimated Control (mice (Mus musculus) [7]; Site 1): 98.8%
Amount of non-toxic bait eaten per week in period following use of poisoned bait (mice (Mus musculus) [7]; Site 1 (912 g per week before)): 11 g
Amount of poisoned bait eaten (mice (Mus musculus) [7]; Site 1, Week 1, 0.1% by weight in bait): 368 g
Amount of poisoned bait eaten (mice (Mus musculus) [7]; Site 1, Week 2): 1 g
Estimated Control (mice (Mus musculus) [7]; Site 2): 98.9%
Amount of non-toxic bait eaten per week in period following use of poisoned bait (mice (Mus musculus) [7]; Site 2 (897 g per week before)): 10 g
Amount of poisoned bait eaten (mice (Mus musculus) [7]; Site 2, Week 1, 0.1% by weight in bait): 441 g
Amount of poisoned bait eaten (mice (Mus musculus) [7]; Site 2, Week 2): 0 g
Estimated Control (mice (Mus musculus) [7]; Site 3): 100%
Amount of non-toxic bait eaten per week in period following use of poisoned bait (mice (Mus musculus) [7]; Site 3 (1880 g per week before)): 0 g
Amount of poisoned bait eaten (mice (Mus musculus) [7]; Site 3, Week 1, 0.1% by weight in bait): 929 g
Amount of poisoned bait eaten (mice (Mus musculus) [7]; Site 3, Week 2): 115 g
Amount of poisoned bait eaten (mice (Mus musculus) [7]; Site 3, Week 3): 11 g

CC(C)(C)C1CCN(CC#Cc2cc(C(F)(F)F)cc(C(F)(F)F)c2)CC1 [Compound of formula I as free base, 1-(3,5-bistrifluoromethylphenyl)-3-(4-tert-butylpiperidino)prop-1-yne]
LD50 (acute oral) (mice (laboratory strain)): 68 mg/kg animal body weight
Observations: signs of poisoning (mice (laboratory strain)): Some signs of poisoning
major symptom of toxicity (rodents; in vivo): sedation is the major symptom of toxicity
manner of death of treated animals (rodents; in vivo): die quietly, without exhibiting signs of distress
period of delay between ingestion and death compared with anticoagulant rodenticides (rodents; vs anticoagulant rodenticides): shorter
toxicity to strains of rodents resistant to anticoagulant rodenticides (rodents; vs strains which do not possess this resistance): equally as toxic

Reference: US4347252A, “Rodenticidal 1-(3,5-bistrifluoromethylphenyl)-3-(4-t-butylpiperidino)prop-1-yne” (priority 1980, dated 1982)
